Columns and labels:
[1] = in vitro; details: human, PBMC
Description: Cytotoxicity against human PBMC after 7 days by sulforhodamine B assay

[2] = physchem; details: octanol/water
Description: Lipophilicity, log P of the compound

[3] = test system: Human immunodeficiency virus 1; assay: microbe, parasite or virus in culture; details: Human immunodeficiency virus 1, 168 h
Description: Antiviral activity against HIV1 infected in human PBMC assessed as inhibition of viral p24 antigen production after 7 days by ELISA

SMILES: CC(C)CCOC(=O)OC[C@H]1O[C@@H](n2ccc(N)nc2=O)CS1
- CC50 at 168 h [1]: 3.33 mM
- logP [2]: -0.15
- IC50 [3]: 1270 nM

SMILES: CCOC(=O)OC[C@H]1O[C@@H](n2ccc(N)nc2=O)CS1
- CC50 at 168 h [1]: 3 mM
- logP [2]: -0.31
- IC50 [3]: 200 nM

SMILES: CCCCCOC(=O)OC[C@H]1O[C@@H](n2ccc(N)nc2=O)CS1
- CC50 at 168 h [1]: 1.29 mM
- logP [2]: 1.23
- IC50 [3]: 65 nM

SMILES: CCCCOC(=O)OC[C@H]1O[C@@H](n2ccc(N)nc2=O)CS1
- CC50 at 168 h [1]: 4.5 mM
- logP [2]: 0.86
- IC50 [3]: 200 nM

SMILES: CCCOC(=O)OC[C@H]1O[C@@H](n2ccc(N)nc2=O)CS1
- CC50 at 168 h [1]: 3.33 mM
- logP [2]: 0.2
- IC50 [3]: 300 nM

SMILES: CCCCCCCCOC(=O)OC[C@H]1O[C@@H](n2ccc(N)nc2=O)CS1
- CC50 at 168 h [1]: 0.45 mM
- logP [2]: 1.72
- IC50 [3]: 200 nM

SMILES: CCCCCCOC(=O)OC[C@H]1O[C@@H](n2ccc(N)nc2=O)CS1
- CC50 at 168 h [1]: 0.857 mM
- logP [2]: 1.57
- IC50 [3]: 250 nM
